# Data reported in patent publication US7067658B2, “Pyridino and pyrimidino pyrazinones” (Bristol-Myers Squibb Company, priority 2002, dated 2006).
# Target: T1, cloned human CRF1 receptors (Homo sapiens, UniProt P34998)
# T1 construct: the coding region is amplified by PCR from start to stop codons; expressed in transfected cells; host or cells: 293EBNA cells (episomal vector phchCRFR, hygromycin selection); membrane homogenate
# T1 sequence (P34998 24-415): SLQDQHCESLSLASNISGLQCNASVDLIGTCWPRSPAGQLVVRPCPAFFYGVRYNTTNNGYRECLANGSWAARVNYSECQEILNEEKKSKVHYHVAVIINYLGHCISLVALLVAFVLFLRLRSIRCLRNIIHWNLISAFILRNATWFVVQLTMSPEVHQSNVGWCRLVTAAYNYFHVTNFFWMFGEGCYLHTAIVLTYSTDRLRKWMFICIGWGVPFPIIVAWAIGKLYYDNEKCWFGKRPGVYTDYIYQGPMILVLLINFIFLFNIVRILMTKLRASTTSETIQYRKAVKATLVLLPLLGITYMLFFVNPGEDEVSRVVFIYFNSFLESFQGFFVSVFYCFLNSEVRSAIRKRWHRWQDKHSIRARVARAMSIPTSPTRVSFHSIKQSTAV
# Experiment: CRF1 receptor binding assay (inhibition of 125I-ovine-CRF binding to membranes of 293EBNA cells transfected with hCRFR1)
# Settings: IC50 ranges as class symbols a-e; read-out: IC50 Range (potency of binding to CRF1 receptor)
# From the text: Provided herein is an example of a CRF1 receptor binding assay that can be used for the evaluation of biological activity of compounds of the present invention. The example also includes isolation of cell membranes containing cloned human CRF1 receptors for use in the binding assay.
# Messenger RNA is isolated from human hippocampus by standard techniques. The mRNA is reverse transcribed using oligo (dt) 12–18 and the coding region is amplified by PCR from start to stop codons The resulting PCR fragment is cloned into the EcoRV site of pGEMV, from whence the insert is reclaimed using XhoI+XbaI and cloned into the XhoI+XbaI sites of vector pm3ar (which contains a CMV promoter, the SV40 ‘t’ splice and early poly A signals, an Epstein-Barr viral origin of replication, and a hygromycin selectable marker). […] Cells surviving 4 weeks of selection in hygromycin are pooled, adapted to growth in suspension, and used to generate membranes for the binding assay described below. Individual aliquots containing approximately 1×10^8 of the suspended cells are then centrifuged to form a pellet and frozen.
# The homogenate is centrifuged at 40,000×g for 12 min and the resulting pellet rehomogenized in 10 mL of tissue buffer. After another centrifugation at 40,000×g for 12 min, the pellet is resuspended to a protein concentration of 360 μg/ml to be used in the assay.
# Binding assays are performed in 96 well plates; each well having a 300 μL capacity. […] Plates are then allowed to incubate at room temperature for 2 hours before filtering the incubate over GF/F filters (presoaked with 0.3% polyethyleneimine) using an appropriate cell harvester. Filters are rinsed 2 times with ice cold assay buffer before removing individual filters and assessing them for radioactivity on a gamma counter.
row,IC50,SMILES
1,100 to 1000 nM,"Cc1nc2c(-c3ccc(OC(F)(F)F)cc3Cl)ncnc2n(C(C)C2CC2)c1=O (stereo not shown) [Example 1062, 4-(2-Chloro-4-trifluoromethoxy-phenyl)-8-(1-cyclopropyl-ethyl)-6-methyl-8H-pteridin-7-one]"

# Same assay, conditions: IC50 ranges as class symbols a-e; read-out: IC50 Range* (potency of binding to CRF1 receptor)
row,IC50,SMILES
1,< 1 nM,"CCC(C1CC1)n1c(=O)c(C)nc2c(-c3cc(Cl)c(OC)cc3C)ccnc21 (stereo not shown) [Example 452, 8-(5-Chloro-4-methoxy-2-methyl-phenyl)-4-(1-cyclopropyl-propyl)-2-methyl-4H-pyrido[2,3-b]pyrazin-3-one]"
2,1 to 10 nM,"CCC(COC)n1c(=O)c(C)nc2c(-c3cc(Cl)c(OC)cc3C)ccnc21 (stereo not shown) [Example 459, 8-(5-Chloro-4-methoxy-2-methyl-phenyl)-4-(1-methoxymethyl-propyl)-2-methyl-4H-pyrido[2,3-b]pyrazin-3-one]"
3,< 1 nM,"CCC(C1CC1)n1c(=O)c(C)nc2c(-c3cc(C)c(OC)cc3Cl)ccnc21 (stereo not shown) [Example 484, 8-(2-Chloro-4-methoxy-5-methyl-phenyl)-4-(1-cyclopropyl-propyl)-2-methyl-4H-pyrido[2,3-b]pyrazin-3-one]"
4,< 1 nM,"CCC(COC)n1c(=O)c(C)nc2c(-c3cc(C)c(OC)cc3Cl)ccnc21 (stereo not shown) [Example 491, 8-(2-Chloro-4-methoxy-5-methyl-phenyl)-4-(1-methoxymethyl-propyl)-2-methyl-4H-pyrido[2,3-b]pyrazin-3-one]"
5,< 1 nM,"CCC(C1CC1)n1c(=O)c(C)nc2c(-c3cc(F)c(N(C)C)cc3Cl)ccnc21 (stereo not shown) [Example 500, 8-(2-Chloro-4-dimethylamino-5-fluoro-phenyl)-4-(1-cyclopropyl-propyl)-2-methyl-4H-pyrido[2,3-b]pyrazin-3-one]"
6,1 to 10 nM,"COCC(C)n1c(=O)c(C)nc2c(-c3cc(F)c(N(C)C)cc3Cl)ccnc21 (stereo not shown) [Example 506, 8-(2-Chloro-4-dimethylamino-5-fluoro-phenyl)-4-(2-methoxy-1-methyl-ethyl)-2-methyl-4H-pyrido[2,3-b]pyrazin-3-one]"
7,< 1 nM,"CCC(COC)n1c(=O)c(C)nc2c(-c3cc(F)c(N(C)C)cc3Cl)ccnc21 (stereo not shown) [Example 507, 8-(2-Chloro-4-dimethylamino-5-fluoro-phenyl)-4-(1-methoxymethyl-propyl)-2-methyl-4H-pyrido[2,3-b]pyrazin-3-one]"

# Same assay, conditions: IC50 ranges, class symbols a-e; read-out: IC50 Range* (potency of binding to CRF1 receptor)
row,SMILES,IC50
1,"CCCC(C)n1c(=O)c(C)nc2c(-c3ccc(Cl)cc3Cl)ccnc21 (racemic) [Example 2, (R,S)-8-(2,4-dichloro-phenyl)-2-methyl-4-(1-methyl-butyl)-4H-pyrido[2,3-b]pyrazin-3-one]",10 to 100 nM
2,"CCCC(C1CC1)n1c(=O)c(C)nc2c(-c3ccc(Cl)cc3Cl)ccnc21 (racemic) [Example 5, (R,S)-4-(1-cyclopropyl-butyl)-8-(2,4-dichloro-phenyl)-2-methyl-4H-pyrido[2,3-b]pyrazin-3-one]",1 to 10 nM
3,"COCC(C)n1c(=O)c(C)nc2c(-c3ccc(Cl)cc3Cl)ccnc21 (racemic) [Example 9, (R,S)-8-(2,4-dichloro-phenyl)-4-(2-methoxy-1-methyl-ethyl)-2-methyl-4H-pyrido[2,3-b]pyrazin-3-one]",10 to 100 nM
4,"CCC(COC)n1c(=O)c(C)nc2c(-c3ccc(Cl)cc3Cl)ccnc21 (racemic) [Example 10, (R,S)-8-(2,4-dichloro-phenyl)-4-(1-methoxymethyl-propyl)-2-methyl-4H-pyrido[2,3-b]pyrazin-3-one]",1 to 10 nM
5,"CCCC(C1CC1)n1c(=O)c(C)nc2c(-c3ccc(OC)cc3C)ccnc21 (racemic) [Example 69, (R,S)-4-(1-cyclopropyl-butyl)-8-(4-methoxy-2-methyl-phenyl)-2-methyl-4H-pyrido[2,3-b]pyrazin-3-one]",1 to 10 nM
6,"CCCCC(CC)n1c(=O)c(C)nc2c(-c3ccc(OC)nc3C)ccnc21 (racemic) [Example 97, (R,S)-4-(1-ethyl-pentyl)-8-(6-methoxy-2-methyl-pyridin-3-yl)-2-methyl-4H-pyrido[2,3-b]pyrazin-3-one]",100 to 1000 nM
7,"CCCC(C1CC1)n1c(=O)c(C)nc2c(-c3ccc(OC)nc3C)ccnc21 (racemic) [Example 101, (R,S)-4-(1-cyclopropyl-butyl)-8-(6-methoxy-2-methyl-pyridin-3-yl)-2-methyl-4H-pyrido[2,3-b]pyrazin-3-one]",10 to 100 nM
8,"CCC(C)n1c(=O)c(C)nc2c(-c3ccc(OC(F)F)cc3Cl)ccnc21 (racemic) [Example 113, (R,S)-4-sec-butyl-8-(2-chloro-4-difluoromethoxy-phenyl)-2-methyl-4H-pyrido[2,3-b]pyrazin-3-one]",10 to 100 nM
9,"Cc1nc2c(-c3ccc(Cl)cc3Cl)ccnc2n(CC(C)C)c1=O [Example 1, (R,S)-8-(2,4-dichloro-phenyl)-4-isobutyl-2-methyl-4H-pyrido[2,3-b]pyrazin-3-one]",> 1000 nM
10,"CCCC(CCC)n1c(=O)c(C)nc2c(-c3ccc(OC)cc3Cl)ccnc21 [Example 18, (R,S)-8-(2-chloro-4-methoxy-phenyl)-2-methyl-4-(1-propyl-butyl)-4H-pyrido[2,3-b]pyrazin-3-one]",1 to 10 nM

# The remaining lines, values ahead:
row,IC50,SMILES
1,1 to 10 nM,"CCCC(C1CC1)n1c(=O)c(C)nc2c(-c3ccc(OC(F)F)cc3Cl)ccnc21 (racemic) [Example 117, (R,S)-8-(2-Chloro-4-difluoromethoxy-phenyl)-4-(1-cyclopropyl-butyl)-2-methyl-4H-pyrido[2,3-b]pyrazin-3-one]"
2,100 to 1000 nM,"CCC(C)n1c(=O)c(C)nc2c(-c3ccc(Cl)cc3Cl)ncnc21 (racemic) [Example 546, (R,S)-8-sec-Butyl-4-(2,4-dichloro-phenyl)-6-methyl-8H-pteridin-7-one]"
3,1 to 10 nM,"CCCC(CCC)n1c(=O)c(C)nc2c(-c3ccc(OC)cc3Cl)ncnc21 [Example 563, 4-(2-Chloro-4-methoxy-phenyl)-6-methyl-8-(1-propyl-butyl)-8H-pteridin-7-one]"
4,1 to 10 nM,CCC(C1CCC1)n1c(=O)c(C)nc2c(-c3ccc(OC)cc3Cl)ccnc21 (stereo not shown) [compound 23]
5,10 to 100 nM,COCC(C)n1c(=O)c(C)nc2c(-c3ccc(OC)cc3Cl)ccnc21 (stereo not shown) [compound 25]
6,> 1000 nM,COCC(C)n1c(=O)c(C)nc2c(-c3ccc(OC)nc3C)ncnc21 (stereo not shown) [compound 650]

# Same assay, conditions: Potency of binding to CRF1 receptor, listed as IC50 ranges; read-out: IC50 Range*
row,IC50,SMILES
1,1 to 10 nM,"CCC(COC)n1c(=O)c(C)nc2c(-c3cc(F)c(OC)cc3Cl)ccnc21 (stereo not shown) [Example 250, 8-(2-Chloro-5-fluoro-4-methoxy-phenyl)-4-(1-methoxymethyl-propyl)-2-methyl-4H-pyrido[2,3-b]pyrazin-3-one]"
